Data as given in ChEMBL document CHEMBL1123450, “A theoretical study of the binding of polychlorinated biphenyls (PCBs), dibenzodioxins, and dibenzofuran to human plasma prealbumin” (J Med Chem, 1986).

Assay: KPCB/ K352 ratio of the compound

Which Ratio does the source give for Oc1c(I)cc(I)cc1I here?
Its Ratio is 33.8.

With Oc1ccc(-c2c(Cl)cc(Cl)cc2Cl)cc1 as the molecule, how does the Ratio read?
Its Ratio is 2.91.

With Oc1c(Cl)cc(-c2ccccc2)cc1Cl as the molecule, how does the Ratio read?
The Ratio was 45.

With Oc1c(Cl)cc(-c2ccc(Cl)cc2)cc1Cl as the molecule, how does the Ratio read?
Its Ratio is 27.5.

With O=C1C(Cl)=CC(=C2C=C(Cl)C(=O)C(Cl)=C2)C=C1Cl as the molecule, how does the Ratio read?
Its Ratio is 2.92.

For Clc1cc(-c2cc(Cl)c(Cl)c(Cl)c2)cc(Cl)c1Cl, which Ratio is on record?
The Ratio was 27.7.

Which Ratio does the source give for Oc1ccc(-c2cc(Cl)c(Cl)c(Cl)c2Cl)cc1 here?
The Ratio was 24.3.

Which Ratio does the source give for Oc1c(Cl)cc(Cl)cc1-c1ccccc1 here?
The Ratio was 1.

For Oc1c(Cl)cc(-c2cc(Cl)c(O)c(Cl)c2)cc1Cl, which Ratio is on record?
The Ratio was 45.5.
